From patent US20070270392A1, “Use of a Cyclopentenone Prostaglandin for Delaying the Onset and/or Preventing the Continuation of Labour” (Imperial College Innovations Limited, priority 2003, published 2007)

How the values were obtained:
[1] = test system: NF-κB; assay: NF-κB-dependent luciferase reporter (κB.BG.Luc) in amnion cells; format: cell-based, human; conditions: L− and L+ amnion cells, treated 2 h, IL-1β 1 ng/ml 6 h
Method: . Values are normalised for b-gal reporter activity.
Placentae were obtained from patients at term either at elective Caesarean section prior to labour (L−) or following spontaneous labour onset and vaginal delivery (L+). Amnion cells were prepared as described in Bennett et al., (1989). Briefly, the amnion was separated from the placenta, washed 3× in PBS, cut into strips, and incubated in 0.51 mM EDTA in PBS for 15 min. The strips were washed in PBS 2× and digested with 2.5 mg/ml dispase in serum-free DMEM for 35 min at 37° C. The amnion was then shaken vigorously in DMEM, 10% FCS to dissociate the cells, the remaining strips discarded, and the cell suspension pelleted at 175 g for 10 min and cultured in DMEM, 10% FCS (Sigma), 1% L-glutamine, 1% penicillin-streptomycin.
pGL3.6 κB.BG.luc was the reporter construct used to assess NF-κB-mediated transcription, while the mutant pGL3.6 κBmut.luc and empty pGL3.BG.luc were used as controls (Schwarzer et al., 1998).
pGL3.6 κB.BG.luc: a NF-κB-dependent reporter construct with 6 copies of the NF-κB binding site. It contains two tandem repeats of the sequence 5′-GGG GAC TTT C CC TGGGGACTTTCCCTGGGGACTTTCCC-3′, which contains three copies of the decameric NF-κB binding site (underlined) upstream of a minimal β-globin promoter driving a luciferase gene. […]

[2] = test system: NF-κB; assay: EMSA of NF-κB DNA binding in nuclear extracts of treated myometrial cells; format: cell-based, human; conditions: for IL-1β-induced NF-κB DNA binding: myometrial cells, treated 2 h, IL-1β stimulation 15 min
Method: Electro-mobility shift assay (EMSA) analysis of NF-κB DNA binding in nuclear protein extracts from (A) myometrial cells, (B) L+amnion cells, and (C) L− amnion cells treated with 15dPGJ2 or vehicle for 2 h+/−IL-1b stimulation (15 min). Consensus kB probe used to assess NF-κB DNA binding, and consensus Oct-1 probe used as control.
Consensus κB probe used to assess NF-κB DNA binding, consensus Oct-1 probe used as control. For supershift analysis, extracts were preincubated with antibodies against p50 or p65.
EMSA analysis of nuclear protein extracts from myometrial cells treated with (A) WY-14643 or vehicle, and (B) high doses of troglitazone, WY-14643 or vehicle for 2 h followed by IL-1b stimulation (15 min). Consensus κB probe used to assess NFκB DNA binding, consensus Oct-1 and Sp-1 probes used as controls.
EMSA analysis of nuclear protein extracts from (A) myometrial cells, and (B) amnion cells treated with PGA1 or vehicle for 2 h followed by IL-1b stimulation (15 min). Consensus κB probe used to assess NFκB DNA binding, consensus Oct-1 probe used as control. For supershift analysis, extracts were preincubated with antibodies against p50 or p65.
Analysis of nuclear protein extracts from myometrial cells treated with PGE2 or vehicle for 2 h+/−TNFα or IL-1b stimulation (15 min). (A) EMSA using consensus κB probe. (B) Western immunoblot probing for nuclear p65.
EMSA analysis of nuclear protein extracts from (A) L− amnion cells and (B) myometrial cells treated with vehicle, PGE2 or IL-1β. Consensus κB probe used.
Myometrial tissue was collected at term from the upper margin of uterine incision at the time of lower segment caesarean section either prior to the onset of labour (L−) or […] (L+). L+ samples were collected by Dr Mark Johnson and Dr S Soorrana at Chelsea & Westminster Hospital. Myometrial tissue was dissected, rinsed in PBS, and digested in serum-free DMEM containing 15 mg/ml collagenase 1A (Sigma), 15 mg/ml collagenase X, and 50 mg/ml bovine serum albumin for 45 min at 37° C. The cell suspension was filtered through a cell strainer, centrifuged at 400 g for 5 min, and the pellet re-suspended and plated out in DMEM, 10% FCS (Helena BioScience), 1% L-glutamine, 1% penicillin-streptomycin. Cells were used between passage numbers 1-4.
Nuclear and cytosolic protein extracts were obtained from cultured amnion cells as described by Schreiber et al (1989). For nuclear/cytosolic fractionation, confluent cell monolayers were scraped and lysed using a buffer containing 10 mM HEPES, 10 mM KCl, 0.1 mM EDTA, 0.1 mM EGTA, 2 mM DTT, 1% (v/v) NP-40 and complete protease inhibitor tablets (CPIs, Roche), diluted to manufacturer's instructions. Cell lysates were incubated on ice for 10 min and NP-40 added to a final concentration of 1% (v/v). Lysates were vortexed for 10 secs and centrifuged for 30 secs at 4° C., 12000 g. The supernatants were retained as the cytosolic protein extracts. The pellets were resuspended in buffer containing 10 mM HEPES, 10 mM KCl, 0.1 mM EDTA, 0.1 mM EGTA, 2 mM DTT, 400 mM NaCl, 1% NP-40 (v/v) and CPIs. Samples were shaken vigorously for 15 min in an ice bath. The nuclear protein extracts were obtained in the supernatant following a 5 min centrifugation at 4° C., 12000 g.
Sense and antisense strands (175 nmole/ml each) were incubated in annealing buffer (10 mM Tris-HCl pH7.5, 100 mM NaCl, 1 mM EDTA) for 10 min at 65° C., and allowed to cool at room temperature for 2 h. 3.5 pmole double-stranded oligonucleotides were end-labelled with 0.37 MBq ^32P(γATP) by incubating for 30 min at 37° C. with T4 polynucleotide kinase. Labelled oligonucleotides were recovered by centrifugation at […] for 2 min through MicroSpin G-25 or G-50 sephadex columns (Amersham Biosciences). […]

CCCCCC=CC=C1C(=O)C=C[C@@H]1CC=CCCCC(=O)O [15d-PGJ2, 15-deoxy-Δ^12,14prostaglandin J2]
IL-1-induced NF-κB transcriptional activity [1]: inhibited | Protein binding to a consensus Oct-1 or Sp-1 probe (control) ([2]; control for NF-κB-specific effect): unaffected | IL-1β-induced NF-κB DNA binding [2]: inhibited

CCCCC[C@H](O)/C=C/[C@H]1C=CC(=O)[C@@H]1CCCCCCC(=O)O [PGA1, prostaglandin A1]
IL-1-induced NF-κB transcriptional activity [1]: inhibited | IL-1β-induced NF-κB DNA binding [2]: able to inhibit
